{"source": "patent US20140158116A1", "about": "“INHIBITING TRPA1 FOR THE TREATMENT OF ASTHMA” (Cubist Pharmaceuticals, Inc., priority 2012, published 2014)", "key": {"[1]": {"tested_on": "formalin-induced pain behavior", "assay": "Formalin-induced pain behavior in vivo rodent model", "design": "species or system rat", "settings": "vehicle 88.6", "from_the_text": "The data shown in Tables 3a, 3b, and 3c and FIG. 2 were obtained by administering a pharmaceutical composition comprising the compound of Formula (Ia) to rodents in the formalin-induced pain duration at various doses according to Example 5. Specifically, the data in Tables 3a, 3b, and 3c and FIG. 2 were obtained by intraperitoneal (i.p.) administration of compositions containing different concentrations of the compound of Formula (Ia), a comparator composition containing recited amounts of the comparator compound (e.g., 150 mg/kg of the comparator compound of Formula (II) in Table 3a) and a control composition containing the vehicle (e.g., without the compound of Formula (Ia) or a comparator compound).\nThe compound of Formula (Ia) and the comparator compounds of Formula (II) and Formula (III) were tested in the formalin-induced pain test reported by Dubuisson et al., Pain 1977 December; 4(2):161-74 (incorporated herein by reference in its entirety). Dubuisson et al. (1977) describe a method for assessing pain and analgesia in rats and cats. Briefly, dilute formalin (50 μL of 3% formalin) is injected into the plantar surface of the hind paw. […] The individual responsible for counting the pain behaviors in a particular study is blinded to the treatment groups.\nRats were treated with the HCl salt of Compound (Ia) at various doses (3, 10, 30, and 50 mg/kg, IP) or with the vehicle (IP)."}, "hTRPV6": {"biological_target": "T1, hTRPV6 (Homo sapiens, UniProt Q9H1D0)", "T1 sequence (Q9H1D0 1-765)": "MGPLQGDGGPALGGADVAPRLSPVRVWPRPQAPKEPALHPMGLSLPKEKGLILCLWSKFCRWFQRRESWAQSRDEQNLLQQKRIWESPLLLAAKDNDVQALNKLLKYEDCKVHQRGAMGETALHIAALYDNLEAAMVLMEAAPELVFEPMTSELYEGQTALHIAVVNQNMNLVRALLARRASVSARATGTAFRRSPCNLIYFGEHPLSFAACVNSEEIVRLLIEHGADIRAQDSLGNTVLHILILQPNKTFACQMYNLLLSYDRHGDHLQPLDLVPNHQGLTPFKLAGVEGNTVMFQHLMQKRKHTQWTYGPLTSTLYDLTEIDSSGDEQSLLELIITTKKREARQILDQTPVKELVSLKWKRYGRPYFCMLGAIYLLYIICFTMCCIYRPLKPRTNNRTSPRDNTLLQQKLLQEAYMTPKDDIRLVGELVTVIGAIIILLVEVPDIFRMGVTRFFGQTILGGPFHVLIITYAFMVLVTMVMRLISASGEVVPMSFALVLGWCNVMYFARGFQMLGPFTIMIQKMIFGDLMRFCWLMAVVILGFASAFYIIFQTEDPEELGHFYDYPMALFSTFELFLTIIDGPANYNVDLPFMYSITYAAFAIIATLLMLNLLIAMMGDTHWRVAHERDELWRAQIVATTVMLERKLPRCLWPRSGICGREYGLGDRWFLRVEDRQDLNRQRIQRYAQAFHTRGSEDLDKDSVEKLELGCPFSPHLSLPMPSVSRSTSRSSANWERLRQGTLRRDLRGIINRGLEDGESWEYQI", "assay": "Patch clamp selectivity, hTRPV6", "type": "cell-based", "protocol": "Data for TRPA1 inhibition and the selectivity of TRPA1 inhibition was obtained by this method for the compound of Formula (Ia) and included in Table 1 and Table 2. All currents were recorded in whole-cell configuration using EPC-9 and EPC-10 amplifiers and Patchmaster software (HEKA). […] The standard pipette solution consisted of 140 mM CsAsp, 10 mM EGTA, 10 mM HEPES, 2.27 mM MgCl2, 1.91 mM CaCl2, 4 mM MgATP, and 0.1-0.3 mM Na2GTP, with pH adjusted to 7.2 with CsOH. In addition, a solution containing 145 mM CsCl, 10 mM HEPES, 10 mM EGTA and 1 mM MgCl2 (pH 7.2 adjusted with CsOH) can be used. The standard bath solution contained 150 mM NaCl, 10 mM HEPES, 10 mM glucose, 4.5 mM KCl, 1 mM EGTA, 3 mM MgCl2, with pH adjusted to 7.4 with NaOH. In some instances, 2 mM CaCl2 was added in place of EGTA and the concentration of MgCl2 was reduced to 1 mM.\nData were collected either by continuous recordings at −60 mV or by applying voltage ramps from a holding potential of 0 mV every 4 s. […] Inward and outward currents were analyzed from the ramps at −80 and 80 mV, respectively. […]\nSolutions were switched using a gravity-fed continuous focal perfusion system. […] Temperatures were confirmed using a thermistor (Warner Instruments, TA-29), with temperatures at the recorded cell estimated to be within +/−2° C. of those reported. […]"}}}
{"compound": "C[C@H]1CCCN1c1ncc(-c2cccc(NC(=O)Cn3cnc4c3c(=O)n(C)c(=O)n4C)n2)cn1", "note": "[Formula (Ia)]", "values": [{"measurement": "Duration of Pain Behavior", "setting": "[1]; 3 mg/kg i.p.", "value": 82.3, "unit": "s"}, {"measurement": "Duration of Pain Behavior", "setting": "[1]; 10 mg/kg i.p.", "value": 85.8, "unit": "s"}, {"measurement": "Duration of Pain Behavior", "setting": "[1]; 30 mg/kg i.p.", "value": 49.8, "unit": "s"}, {"measurement": "Duration of Pain Behavior", "setting": "[1]; 50 mg/kg i.p.", "value": 5.9, "unit": "s"}, {"measurement": "Fold Selectivity Compared to TRPA1", "setting": "hTRPV6", "value": "~370", "unit": "fold"}, {"measurement": "IC50", "setting": "hTRPV6; Voltage, Inward (−80 mV)", "value": 34, "unit": "µM"}]}
